Measured values taken from patent US8987193B2, “Nisin derivatives and the use thereof” (University College Cork—National University of Ireland, Cork, priority 2008, dated 2015).
Ends that are not written are not given here.

What was measured:
Experiment in all cases: Deferred antagonism assay
C. sporogenes CBC5 = format: cell-based, Clostridium sporogenes; design: key: + = Enhanced bioactivity relative to control; − = Bioactivity equal to or less than control; NA = no activity evident; details: producing strain
L. monocytogenes CBC1 = format: cell-based, Listeria monocytogenes; design: key: + = Enhanced bioactivity relative to control; − = Bioactivity equal to or less than control; NA = no activity evident; details: producing strain; L. mono CBC1
Outline: (§1)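 Well-diffusion testing of purified nisin variants in 0.005% acetic acid, serially diluted, 37° C overnight; AU/ml = reciprocal of last dilution with definite zone × 20. Deferred antagonism: overnight GM17 colonies overlaid with seeded soft agar (0.75%); zone = clearing diameter minus 5 mm.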

L. monocytogenes CBC2 = format: cell-based, Listeria monocytogenes; design: key: + = Enhanced bioactivity relative to control; − = Bioactivity equal to or less than control; NA = no activity evident; details: producing strain; L. mono CBC2
Outline: as §1

L. monocytogenes CBC3 = format: cell-based, Listeria monocytogenes; design: key: + = Enhanced bioactivity relative to control; − = Bioactivity equal to or less than control; NA = no activity evident; details: producing strain; L. mono CBC3
Outline: as §1

L. lactis CBC8 = format: cell-based; design: key: + = Enhanced bioactivity relative to control; − = Bioactivity equal to or less than control; NA = no activity evident; details: producing strain
Outline: as §1

S. aureus CBC4 = format: cell-based; design: key: + = Enhanced bioactivity relative to control; − = Bioactivity equal to or less than control; NA = no activity evident; details: producing strain
Outline: as §1

L. lactis CBC7 = format: cell-based; design: key: + = Enhanced bioactivity relative to control; − = Bioactivity equal to or less than control; NA = no activity evident; details: producing strain
Outline: as §1

[1] = tested on: Listeria monocytogenes 33037; format: cell-based; details: nisin strain; L. monocytogenes 33037
Description: (§2) Deferred antagonism assays were performed by replicating strains on GM17 or GM17 x-gal agar plates and allowing them to grow overnight before overlaying with either GM17/BHI/TS/MH agar (0.75% w/v agar) seeded with the appropriate indicator strain. Zone size was calculated as the diameter of the zone of clearing minus the diameter of bacterial growth (5 mm) For higher throughput screening of N20PXX, XM21VX, XXK22T and XXX banks deferred antagonism assays were performed by replicating strains using a 96 pin replicator (Boekel) or spotting 5 μl of a fresh overnight culture on GM17 agar plates and allowing them to grow overnight. […] Additional sets of indicators were employed to further assess/reassess the bioactivity of a number of strains. […] For well-diffusion assays molten agar was cooled to 48° C. and seeded with the appropriate indicator strain. The inoculated medium was rapidly transferred into sterile Petri plates in 50 ml volumes, allowed to solidify and dried. Wells (4.6 mm in diameter) were then made in the seeded plates. Purified nisin and mutant nisins were resuspended in 0.005% acetic acid, serially diluted, 50 μl volumes were dispensed into the aforementioned wells and the plates incubated at 37° C. overnight. Bioactivity was expressed as arbitrary units/ml (AU/ml) and calculated as the reciprocal of the highest dilution that gave a definite zone multiplied by the conversion factor (i.e. 20 when 50 μl was used) (Ryan et al., 1996).

[2] = tested on: Listeria monocytogenes 33411; format: cell-based; details: nisin strain; L. monocytogenes 33411
Description: as §2

[3] = tested on: Listeria monocytogenes CD83; format: cell-based; details: nisin strain; L. monocytogenes CD83
Description: as §2

Listeria innocua FH2117 = format: cell-based; details: nisin strain
Description: as §2

[4] = tested on: Listeria monocytogenes 33116; format: cell-based; details: nisin strain; L. monocytogenes 33116
Description: as §2

[5] = tested on: Listeria monocytogenes NRRLB 33038; format: cell-based; details: nisin strain; L. monocytogenes NRRLB 33038
Description: as §2

[6] = tested on: Listeria monocytogenes 33013; format: cell-based; details: nisin strain; L. monocytogenes 33013
Description: as §2

[7] = tested on: Listeria monocytogenes 33090; format: cell-based; details: nisin strain; L. monocytogenes 33090
Description: as §2

[8] = tested on: Listeria monocytogenes SLCC 4949; format: cell-based; details: nisin strain; L. monocytogenes SLCC 4949
Description: as §2

[9] = tested on: Listeria monocytogenes 33225; format: cell-based; details: nisin strain; L. monocytogenes 33225
Description: as §2

[10] = tested on: Listeria monocytogenes 33176; format: cell-based; details: nisin strain; L. monocytogenes 33176
Description: as §2

[11] = tested on: Listeria monocytogenes 33077; format: cell-based; details: nisin strain; L. monocytogenes 33077
Description: as §2

[12] = tested on: Strep. agalactiae ATCC13813; format: cell-based; details: producing strain, diameter of zone minus 5 mm, average of duplicates
Staph. aureus DPC5245 = format: cell-based; details: producing strain; diameter of zone minus 5 mm; average of duplicates; St. aureus DPC5245
Outline: (§3)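 Producer strains replicated on GM17 agar, grown overnight, then overlaid with soft agar (0.75% w/v) seeded with indicator strain. Zone size = clearing diameter minus 5 mm growth diameter, relative to NZ9800 pCI372nisA control; mean of duplicates.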

[13] = tested on: Staph. aureus ST528 (MRSA); format: cell-based; details: producing strain, diameter of zone minus diameter of bacterial growth (5 mm), average of duplicates
Outline: as §3

NisinA K22A (ITSISLCTPGCKTGALMGCNMATATCHCSIHVSK; not fully specified; also: lantibiotic: lanthionine rings and dehydro residues not placed; UniProt P13068 24-57, looked up, variant K22A) [nisin A derivative, hinge substitution K22A]
Bioactivity relative to control (C. sporogenes CBC5): − | Bioactivity relative to control (L. monocytogenes CBC1): − | Bioactivity relative to control (L. monocytogenes CBC2): + | Bioactivity relative to control (L. monocytogenes CBC3): − | Bioactivity relative to control (L. lactis CBC8): + | Bioactivity relative to control (S. aureus CBC4): − | Bioactivity relative to control (L. lactis CBC7): − | Activity score (zone) [1]: + (+, 1-5 mm zone) | Activity score (zone) [2]: + (+, 1-5 mm zone) | Activity score (zone) [3]: + (+, 1-5 mm zone) | Activity score (zone) (Listeria innocua FH2117): + (+, 1-5 mm zone) | Activity score (zone) [4]: + (+, 1-5 mm zone) | Activity score (zone) [5]: + (+, 1-5 mm zone) | Activity score (zone) [6]: + (+, 1-5 mm zone) | Activity score (zone) [7]: + (+, 1-5 mm zone) | Activity score (zone) [8]: + (+, 1-5 mm zone) | Activity score (zone) [9]: + (+, 1-5 mm zone) | Activity score (zone) [10]: + (+, 1-5 mm zone) | Activity score (zone) [11]: + (+, 1-5 mm zone) | zone size relative to that of the NZ9800 pCI372nisA control [12]: 137% | zone size relative to that of the NZ9800 pCI372nisA control (Staph. aureus DPC5245): 117% | zone size relative to that of the NZ9800 pCI372nisA control [13]: 126%

NisinA M21G (ITSISLCTPGCKTGALMGCNGKTATCHCSIHVSK; not fully specified; also: lantibiotic: lanthionine rings and dehydro residues not placed; UniProt P13068 24-57, looked up, variant M21G) [nisin A derivative, hinge substitution M21G]
Bioactivity relative to control (C. sporogenes CBC5): + | Bioactivity relative to control (L. monocytogenes CBC1): − | Bioactivity relative to control (L. monocytogenes CBC2): + | Bioactivity relative to control (L. monocytogenes CBC3): − | Bioactivity relative to control (L. lactis CBC8): − | Bioactivity relative to control (S. aureus CBC4): + | Bioactivity relative to control (L. lactis CBC7): − | Activity score (zone) [1]: + (+, 1-5 mm zone) | Activity score (zone) [2]: + (+, 1-5 mm zone) | Activity score (zone) [3]: + (+, 1-5 mm zone) | Activity score (zone) (Listeria innocua FH2117): + (+, 1-5 mm zone) | Activity score (zone) [4]: + (+, 1-5 mm zone) | Activity score (zone) [5]: + (+, 1-5 mm zone) | Activity score (zone) [6]: + (+, 1-5 mm zone) | Activity score (zone) [7]: + (+, 1-5 mm zone) | Activity score (zone) [8]: + (+, 1-5 mm zone) | Activity score (zone) [9]: + (+, 1-5 mm zone) | Activity score (zone) [10]: + (+, 1-5 mm zone) | Activity score (zone) [11]: + (+, 1-5 mm zone) | zone size relative to that of the NZ9800 pCI372nisA control [12]: 115% | zone size relative to that of the NZ9800 pCI372nisA control (Staph. aureus DPC5245): 123% | zone size relative to that of the NZ9800 pCI372nisA control [13]: 125%

NisinA M21I (ITSISLCTPGCKTGALMGCNIKTATCHCSIHVSK; not fully specified; also: lantibiotic: lanthionine rings and dehydro residues not placed; UniProt P13068 24-57, looked up, variant M21I) [nisin A derivative, hinge substitution M21I]
Bioactivity relative to control (C. sporogenes CBC5): + | Bioactivity relative to control (L. monocytogenes CBC1): − | Bioactivity relative to control (L. monocytogenes CBC2): + | Bioactivity relative to control (L. monocytogenes CBC3): − | Bioactivity relative to control (L. lactis CBC8): + | Bioactivity relative to control (S. aureus CBC4): + | Bioactivity relative to control (L. lactis CBC7): + | Activity score (zone) [1]: ++ (++, 6-10 mm zone) | Activity score (zone) [2]: + (+, 1-5 mm zone) | Activity score (zone) [3]: + (+, 1-5 mm zone) | Activity score (zone) (Listeria innocua FH2117): + (+, 1-5 mm zone) | Activity score (zone) [4]: ++ (++, 6-10 mm zone) | Activity score (zone) [5]: + (+, 1-5 mm zone) | Activity score (zone) [6]: + (+, 1-5 mm zone) | Activity score (zone) [7]: + (+, 1-5 mm zone) | Activity score (zone) [8]: + (+, 1-5 mm zone) | Activity score (zone) [9]: + (+, 1-5 mm zone) | Activity score (zone) [10]: + (+, 1-5 mm zone) | Activity score (zone) [11]: + (+, 1-5 mm zone) | zone size relative to that of the NZ9800 pCI372nisA control [12]: 92% | zone size relative to that of the NZ9800 pCI372nisA control (Staph. aureus DPC5245): 115% | zone size relative to that of the NZ9800 pCI372nisA control [13]: 107%

NisinA M21S (ITSISLCTPGCKTGALMGCNSKTATCHCSIHVSK; not fully specified; also: lantibiotic nisin: dehydrated residues and thioether rings not placed; UniProt P13068 24-57, looked up, variant M21S) [nisin A derivative, hinge substitution M21S]
Bioactivity relative to control (C. sporogenes CBC5): + | Bioactivity relative to control (L. monocytogenes CBC1): − | Bioactivity relative to control (L. monocytogenes CBC2): + | Bioactivity relative to control (L. monocytogenes CBC3): + | Bioactivity relative to control (L. lactis CBC8): + | Bioactivity relative to control (S. aureus CBC4): + | Bioactivity relative to control (L. lactis CBC7): − | Activity score (zone) [1]: ++ (++, 6-10 mm zone) | Activity score (zone) [2]: ++ (++, 6-10 mm zone) | Activity score (zone) [3]: + (+, 1-5 mm zone) | Activity score (zone) (Listeria innocua FH2117): + (+, 1-5 mm zone) | Activity score (zone) [4]: ++ (++, 6-10 mm zone) | Activity score (zone) [5]: ++ (++, 6-10 mm zone) | Activity score (zone) [6]: + (+, 1-5 mm zone) | Activity score (zone) [7]: + (+, 1-5 mm zone) | Activity score (zone) [8]: + (+, 1-5 mm zone) | Activity score (zone) [9]: ++ (++, 6-10 mm zone) | Activity score (zone) [10]: ++ (++, 6-10 mm zone) | Activity score (zone) [11]: ++ (++, 6-10 mm zone) | zone size relative to that of the NZ9800 pCI372nisA control [12]: 110% | zone size relative to that of the NZ9800 pCI372nisA control (Staph. aureus DPC5245): 110% | zone size relative to that of the NZ9800 pCI372nisA control [13]: 105%
